This is an account of results in patent US5830855A, “Lipodepsipeptides as antifungal and fungicidal agents” (priority 1996, dated 1998).

In brackets after ≈: the same amount, converted by molar mass. Numbered stars: 1 amine (or outer) side, 2 acyl side, 3 side chain; on linkers, the order of the positions; unused ones are H or OH. Bridge positions count the residues as written; N and C are the ends. Square brackets hold non-standard residues; d marks the D form. Peptide text beside a SMILES is read from it. * marks the point of attachment. ξ: configuration not given here. Asp(3S-OH) = N[C@H](C(=O)O)[C@H](O)C(=O)O; Thr(4-Cl) = N[C@H](C(=O)O)[C@H](O)CCl; ξAsp(3ξ-OH) = NC(C(=O)O)C(O)C(=O)O; X3 = O=C(C(N[*:1])C(O)CCl)[*:2]; X1 = CCCCCCCCC[C@@H](O)CC(=O)*; X2 = CCCCCCCCCCCC(O)CC(=O)*; dDab = NCC[C@@H](N)C(=O)O; Dab = NCC[CH](N)C(=O)O; Orn = NCCC[CH](N)C(=O)O; hSer = N[CH](CCO)C(=O)O; Dhb = C/C=C(\N)C(=O)O

What all share (assay type): cell-based
Test [1] deals with Cryptococcus neoformans. Description: Minimum Fungicidal Concentration (MFC). To be noted: Table 2, 14 isolates, 48 hr. How it is done: (§1) Medium: Liquid RPMI 1640 (RPMI) medium with L-glutamine and without sodium bicarbonate (Sigma Chemical Co., R-6504; St. Louis, Mo.) buffered with 0.165M MOPS (34.54 g/liter) was used for in vitro antifungal tests. The medium was adjusted to pH 7.0 with 10M NaOH and filter sterilized.
(§2) Lipodepsipeptide Dilutions: All stock drug solution concentrations were at least 10-fold higher than the highest concentration tested. AmB, ketoconazole, and the test compounds (SR-E, ST-B, and SS-A) were dissolved in sterile distilled water, 0.2N HCl, and 0.001N HCl, respectively. Each stock solution was diluted to 2× the highest concentration of drug tested with RPMI. Two-fold dilutions were made with RPMI medium.
(§3) Preparation of Inoculum Suspensions: On Sabouraud dextose agar (SDA; BBL, Becton and Dickinson and Co., Cockeysville, Md.) all isolates were subcultured at least twice before use to ensure purity and viability. Candida spp. and Saccharomyces cerevisiae were grown for 24 hr at 35° C. Isolates of Cryptococcus neoformans were grown for 48 hr at 35° C. Yeast cells from at least five 1-mm-diameter colonies were suspended in 5 ml of sterile 0.85% saline. The resulting suspension was vortexed for 15 sec. The turbidity of each mixed suspension was measured at 530 nm and adjusted to 1×10^6 to 5×10^6 CFU/ml by the NCCLS spectrophotometric method described by National Committee for Clinical Laboratory Standards. 1992. Reference method for broth dilution antifungal susceptibility testing of yeasts; proposed standard, NCCLS document M27-P (ISBN 1-56238-186-5). NCCLS, Villanova. The final transmission of each yeast suspension ranged from 85-87%.
(§4) Aspergillus fumigatus and Mucor spp. were grown for 1 wk at 35° C. The dermatophytes, Microsporum spp. and Trichophyton spp., were grown for two wk at 30° C. Fungal spores were washed from the plates of all good spore formers (A. fumigatus, Mucor spp., Microsporum canis and Trichophyton spp.) by placing 5 ml of 0.85% saline with 0.2% Tween 80 on the plates and mixing with an inoculating loop. The spore/mycelium suspension was drawn off with a pipette and allowed to settle for at least 5 min. For the poor spore-forming Microsporum audouinii, the procedure was the same except the spore/mycelial suspension was homogenized with a ground glass tissue homogenizer and then allowed to settle for at least 5 min. A small amount of the supernatant was transferred to 5 ml of sterile saline and vortexed. The stock suspensions of all filamentous fungi were measured at 530 nm and adjusted to 85-87% transmission. The concentration (1×10^6 to 5×10^6 CFU/ml) was determined by hemacytometer count or plate count on SDA. All stock suspensions were diluted 1000-fold with RPMI, or 2× the final desired test inocula. The 2× inoculum was diluted 1:1 when the wells were inoculated, and the desired inoculum size was achieved.
(§5) Broth Microdilution Test: Broth microdilution tests were performed using sterile, disposable, multiwell microdilution plates (96 round U-bottom wells) (Falcon 3077; Becton and Dickinson Labware, Lincoln Park, N.J.). The drugs (2× concentrations) were dispensed into the wells of rows number 1 to 10 of the microdilution plates in 100 μl volumes from highest drug concentration to lowest drug concentration. Each well was inoculated with 100 μl of the corresponding 2× concentrated fungal suspension. The wells of row 11 contained the inoculum with drug-free media as a positive growth control and the wells of row 12 contained uninoculated-drug-free medium as a sterility control.
(§6) Incubation and Scoring of MIC: All cultures were incubated without shaking at the temperature used during subculture. Incubation times were 48 hr for Candida spp., S. cerevisiae, A. fumigatus, and Mucor spp; 72 hr for C. neoformans; and 7 days for Microsporum and Trichophyton spp. […]

In test [2] the test system is Candida parapsilosis. Briefly: Minimum Fungicidal Concentration (MFC). As to conditions: Table 2, 2 isolates, 24 hr. Here is the method:
as §1, §2, §3, §4, §5, §6

Test [3] deals with Candida tropicalis. Briefly: Minimum Fungicidal Concentration (MFC). To be noted: Table 2, 2 isolates, 24 hr. Here is the method: as §1, §2, §3, §4, §5, §6
The test system of test [4] is Candida rugosa. Description: Minimum Fungicidal Concentration (MFC). As to conditions: Table 2, 2 isolates, 24 hr. How it is done:
as §1, §2, §3, §4, §5, §6

Test [5] concerns Candida lusitaniae. Description: Minimum Fungicidal Concentration (MFC). To be noted: Table 2, 2 isolates, 24 hr. How it is done:
as §1, §2, §3, §4, §5, §6

For test [6], the system named is Candida krusei. Description: Minimum Fungicidal Concentration (MFC). To be noted: Table 2, 2 isolates, 24 hr. Here is the method:
as §1, §2, §3, §4, §5, §6

Test [7] concerns Candida kefyr. Briefly: Minimum Fungicidal Concentration (MFC). As to conditions: Table 2, 1 isolate, 24 hr. How it is done: as §1, §2, §3, §4, §5, §6
The test system of test [8] is Candida albicans. Description: Minimum Fungicidal Concentration (MFC). To be noted: Table 2, 20 isolates, subculture on drug-free SDA 24 hr. Here is the method: as §1, §2, §3, §4, §5, §6
Test [9] concerns Saccharomyces cerevisiae. Briefly: Minimum Fungicidal Concentration (MFC). To be noted: Table 2, 1 strain tested more than once, 24 hr. Here is the method: as §1, §2, §3, §4, §5, §6
Test [10] has as its system Microsporum spp. Description: Minimum Fungicidal Concentration (MFC). As to conditions: Table 2, 2 isolates, 7 d. Here is the method: as §1, §2, §3, §4, §5, §6
In test [11] the test system is Trichophyton spp. Description: Minimum Fungicidal Concentration (MFC). To be noted: Table 2, 3 isolates, 7 d. How it is done: as §1, §2, §3, §4, §5, §6
For test [12], the system named is Cryptococcus neoformans. Briefly: Broth microdilution MIC. As to conditions: for MIC range: Table 1 (MICs), Cryptococcus neoformans, 14 isolates, 72 hr. How it is done: as §1, §2, §3, §4, §5, §6
(In general: In broth dilution the organism is exposed to a series of concentrations in liquid medium.)

Test [13] deals with Candida parapsilosis. Briefly: Broth microdilution MIC. As to conditions: Table 1 (MICs), 2 isolates, 48 hr. Here is the method: as §1, §2, §3, §4, §5, §6
In test [14] the test system is Candida tropicalis. Description: Broth microdilution MIC. To be noted: Table 1 (MICs); Candida tropicalis, 2 isolates; 48 hr. Here is the method:
as §1, §2, §3, §4, §5, §6

The test system of test [15] is Candida rugosa. Briefly: Broth microdilution MIC. To be noted: Table 1 (MICs); Candida rugosa, 2 isolates; 48 hr. How it is done: as §1, §2, §3, §4, §5, §6
Test [16] has as its system Candida lusitaniae. Description: Broth microdilution MIC. To be noted: Table 1 (MICs), 2 isolates, 48 hr. How it is done: as §1, §2, §3, §4, §5, §6
Test [17] has as its system Candida krusei. Description: Broth microdilution MIC. As to conditions: Table 1 (MICs), 2 isolates, 48 hr. How it is done: as §1, §2, §3, §4, §5, §6
Another test relates to Aspergillus fumigatus. Description: Broth microdilution MIC. To be noted: Table 1 (MICs), 16 isolates, 48 hr. Here is the method: as §1, §2, §3, §4, §5, §6
The test system of test [18] is Candida kefyr. Briefly: Broth microdilution MIC. As to conditions: Table 1 (MICs), 1 isolate, 48 hr. Here is the method:
as §1, §2, §3, §4, §5, §6

The test system of test [19] is Candida albicans. Description: Broth microdilution MIC. To be noted: Table 1 (MICs); Candida albicans, 20 isolates; RPMI pH 7.0, 48 hr; Ktz read at score 2, others at score 0. Here is the method: as §1, §2, §3, §4, §5, §6
Test [20] concerns Saccharomyces cerevisiae. Description: Broth microdilution MIC. As to conditions: Table 1 (MICs), 1 strain tested more than once (control ATCC 36375), 48 hr. How it is done:
as §1, §2, §3, §4, §5, §6

The subject of test [21] is Microsporum spp. Description: Broth microdilution MIC. To be noted: Table 1 (MICs), 2 isolates, 7 days. Here is the method:
as §1, §2, §3, §4, §5, §6

Test [22] has as its system Trichophyton spp. Briefly: Broth microdilution MIC. As to conditions: Table 1 (MICs), 3 isolates, 7 days. How it is done:
as §1, §2, §3, §4, §5, §6

On to `C/C=C1\NC(=O)[C@H](Cc2ccccc2)NC(=O)[C@H](CCCN=C(N)N)NC(=O)[C@@H](CCN)NC(=O)[C@H](CCN)NC(=O)[C@@H](CO)NC(=O)[C@@H](NC(=O)C[C@H](O)CCCCCCCCC)COC(=O)[C@H]([C@H](O)CCl)NC(=O)[C@H]([C@H](O)C(=O)O)NC1=O` [SR-E, Syringomycin-E] (X1-S[dS][Dab][dDab]RF[Dhb][Asp(3S-OH)][Thr(4-Cl)]; ester 1-C), for which the “MFC (μg/ml) range” value against Cryptococcus neoformans [1] was 2.5 to 10 µg/mL; against Candida parapsilosis [2] it was 2.5 µg/mL (≈ 2.04 µM); against Candida tropicalis [3] it was 5 µg/mL (≈ 4.08 µM); in the test on Candida rugosa [4] it was 10 to 20 µg/mL; with Candida lusitaniae [5] it was 2.5 to 5 µg/mL; against Candida krusei [6] it was 10 µg/mL (≈ 8.16 µM). For the same compound, the “MFC (μg/ml) range” value was 2.5 µg/mL (≈ 2.04 µM) against Candida kefyr [7]; 2.5 to 5 µg/mL against Candida albicans [8]; 2.5 µg/mL (≈ 2.04 µM) with Saccharomyces cerevisiae [9]; 6.25 to 12.5 µg/mL in the test on Microsporum spp. [10]; 6.25 to 25 µg/mL in the test on Trichophyton spp. [11]; 2.5 µg/mL (≈ 2.04 µM) with Saccharomyces cerevisiae [20]. In addition, the MIC range with Cryptococcus neoformans [12] was 2.5 to 10 µg/mL; in the test on Candida parapsilosis [13] it was 2.5 µg/mL (≈ 2.04 µM); against Candida rugosa [15], 5 to 20 µg/mL; in the test with Candida lusitaniae [16], 2.5 µg/mL (≈ 2.04 µM); against Aspergillus fumigatus it was 10 to 20 µg/mL; against Candida albicans [19], 2.5 to 5 µg/mL. For the same compound, the MIC range with Microsporum spp. [21] lay in the range of 6.25 to 12.5 µg/mL; against Trichophyton spp. [22], 3.1 to 6.25 µg/mL. Further, the “MIC (μg/ml) range” value is 2.5 to 5 µg/mL with Candida tropicalis [14], 10 µg/mL (≈ 8.16 µM) in the test with Candida krusei [17] and 2.5 µg/mL (≈ 2.04 µM) against Candida kefyr [18].
As to `C/C=C1\NC(=O)C(C(C)O)NC(=O)C(CCCN)NC(=O)C(CCO)NC(=O)CNC(=O)C(CCN)NC(=O)C(NC(=O)CC(O)CCCCCCCCCCC)COC(=O)C(C(O)CCl)NC(=O)C(C(O)C(=O)O)NC1=O` (centres unmarked) [ST-B, Syringotoxin B] (X2-S[Dab]G[hSer][Orn]T[Dhb][ξAsp(3ξ-OH)][X3]; ester 1-C; configuration not given here), the “MFC (μg/ml) range” value in the test with Cryptococcus neoformans [1] is 0.8 to 12.5 µg/mL; against Candida parapsilosis [2] it was 12.5 to 25 µg/mL; against Candida tropicalis [3] it was 12.5 µg/mL (≈ 11 µM); with Candida rugosa [4], 6.25 to 50 µg/mL; in the test with Candida lusitaniae [5] it was 6.25 to 12.5 µg/mL; in the test with Candida krusei [6], 12.5 to 50 µg/mL. Besides, the “MFC (μg/ml) range” value was 3.2 µg/mL (≈ 2.82 µM) in the test on Candida kefyr [7]; 3.2 to 12.5 µg/mL in the test with Candida albicans [8]; 12.5 to 25 µg/mL against Saccharomyces cerevisiae [9]; 25 to 200 µg/mL with Microsporum spp. [10]; 25 to 200 µg/mL in the test with Trichophyton spp. [11]; 6.25 µg/mL (≈ 5.5 µM) against Saccharomyces cerevisiae [20]. For the same compound, the MIC range was 0.8 to 6.25 µg/mL against Cryptococcus neoformans [12]; 6.25 to 12.5 µg/mL in the test on Candida parapsilosis [13]; 3.2 to 25 µg/mL with Candida rugosa [15]; 6.25 µg/mL (≈ 5.5 µM) in the test with Candida lusitaniae [16]; 6.25 to 25 µg/mL in the test with Aspergillus fumigatus; 3.2 to 12.5 µg/mL against Candida albicans [19]. The MIC range against Microsporum spp. [21] and with Trichophyton spp. [22] was 25 to 200 µg/mL throughout. For the same compound, the MIC, one strain of C. neoformans with Cryptococcus neoformans [12] (one strain of C. neoformans, very sensitive to ST-B, somewhat resistant to AmB) was determined as 0.8 µg/mL. The “MIC (μg/ml) range” value is 3.2 µg/mL (≈ 2.82 µM) in the test on Candida tropicalis [14], 12.5 to 25 µg/mL in the test on Candida krusei [17] and 3.2 µg/mL (≈ 2.82 µM) in the test with Candida kefyr [18].
